Key:
Details in all cases: incubation time: 72 h
MDA-MB-468 [1] = assay: normalised viability (% of control), CellTiter-Blue; higher = more viable cells (about 100 = DMSO control)
Protocol: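 DSRT, CellTiter-Blue viability, 72 h incubation. Signal is normalised to DMSO and benzethonium chloride controls. Value is the normalised response at dose 3.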

BT-549 [2] = assay: drug sensitivity score (DSS), CellTiter-Glo (DSS (AUC-based score)); higher = stronger drug effect (viability inhibition or cytotoxicity); extreme values may be limits of the assay
How it was run: (§1)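 Breast cancer cells were seeded into 384-well plates containing compound at 5 concentrations in 10-fold steps over a compound-specific 10,000-fold range and incubated 72 h. After CellTox Green and CellTiter-Glo readings, each plate was normalised to 0.1 % DMSO and a positive kill control. The drug sensitivity score rests on the area under the fitted dose-response curve.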

CAL-120 [3] = assay: as above
How it was run: as §1

HCC1143 [4] = assay: as above
How it was run: as §1

Hs578T = assay: as above
How it was run: as §1

MDA-MB-231 = assay: as above
How it was run: as §1

MDA-MB-436 [5] = assay: as above
How it was run: as §1

MDA-MB-453 [6] = assay: as above
How it was run: as §1

MDA-MB-468 [7] = assay: as above
How it was run: as §1

SK-BR-3 = assay: as above
How it was run: as §1

BT-474 = assay: drug sensitivity score (DSS), CellTox Green (DSS (AUC-based score)); higher = stronger drug effect (viability inhibition or cytotoxicity); extreme values may be limits of the assay
How it was run: as §1

BT-549 [8] = assay: as above
How it was run: as §1

CAL-120 [9] = assay: as above
How it was run: as §1

CAL-148 = assay: as above
How it was run: as §1

CAL-51 = assay: as above
How it was run: as §1

CAL-85-1 = assay: as above
How it was run: as §1

DU-4475 = assay: as above
How it was run: as §1

HCC1143 [10] = assay: as above
How it was run: as §1

HCC1599 = assay: as above
How it was run: as §1

HDQ-P1 = assay: as above
How it was run: as §1

MCF-10A = assay: as above
How it was run: as §1

MDA-MB-436 [11] = assay: as above
How it was run: as §1

MDA-MB-453 [12] = assay: as above
How it was run: as §1

MDA-MB-468 [13] = assay: as above
How it was run: as §1

MFM-223 = assay: as above
How it was run: as §1

SMILES	normalised viability (MDA-MB-468 [1]; 10 nM) [%]	drug sensitivity score (BT-549 [2])	drug sensitivity score (CAL-120 [3])	drug sensitivity score (HCC1143 [4])	drug sensitivity score (Hs578T)	drug sensitivity score (MDA-MB-231)	drug sensitivity score (MDA-MB-436 [5])	drug sensitivity score (MDA-MB-453 [6])	drug sensitivity score (MDA-MB-468 [7])	drug sensitivity score (SK-BR-3)	drug sensitivity score (BT-474)	drug sensitivity score (BT-549 [8])	drug sensitivity score (CAL-120 [9])	drug sensitivity score (CAL-148)	drug sensitivity score (CAL-51)	drug sensitivity score (CAL-85-1)	drug sensitivity score (DU-4475)	drug sensitivity score (HCC1143 [10])	drug sensitivity score (HCC1599)	drug sensitivity score (HDQ-P1)	drug sensitivity score (MCF-10A)	drug sensitivity score (MDA-MB-436 [11])	drug sensitivity score (MDA-MB-453 [12])	drug sensitivity score (MDA-MB-468 [13])	drug sensitivity score (MFM-223)	normalised viability (MDA-MB-468 [1]; 100 nM) [%]
COc1cccc2c1C(=O)c1c(O)c3c(c(O)c1C2=O)C[C@@](O)(C(=O)CO)C[C@@H]3O[C@H]1C[C@H](N)[C@H](O)[C@H](C)O1 [Doxorubicin]	98.8	8.09	1.5	1.04	2.18	4.21	4.44	2.56	9.32	6.19	0	0	0	1.99	10.9	1.33	0	0	0	0	0	0	0	5.83	1.83	
CN1CC[C@H](c2c(O)cc(O)c3c(=O)cc(-c4ccccc4Cl)oc23)[C@H](O)C1 [Alvocidib]		17.7	14.1	14.9	16.2	19.1	18.8	12.8	18.1	19.8	0.211	2.81	1.81	0	4.44	15.3	0	0	0	7.43	16.1	0	0	0	7.92	91.5
Nc1ccn([C@@H]2O[C@H](CO)[C@@H](O)[C@@H]2O)c(=O)n1 [Cytarabine]		7.56	0.601	3.36	2.8	0	10.5	0	4.8	12.2	0	0	0	7.92	13.1	0	0	0	0	0	0.944	0	0	0	0	95.1
N#CC[C@H](C1CCCC1)n1cc(-c2ncnc3[nH]ccc23)cn1 [Ruxolitinib]		0	1.35	0	0	0	0	0	0.173	0	0	0	0	0	0	0	0	0	0	4.94	0	0	0	0	0	100
S=c1[nH]cnc2nc[nH]c12 [Mercaptopurine]		0	4.08	0	6.04	7.35	0.565	0	0	0	0	0	0	0	0	0	0	0	0	0	0	0	0	0	0	108

Source: the supplement of paper PMC4862054
